The source made the active and inactive calls. No cut-off for these calls is given here.
Assays:
[1] = system: Plasma; assay: Fraction unbound in rat plasma; assay type: ADME, cell-free
[2] = Plasma clearance in iv dosed rat; assay type: ADME, organism-based
[3] = target: T1, Muscarinic acetylcholine receptor M1 (Homo sapiens) (UniProt P11229); assay: (§1) Antagonist activity at human muscarinic M1 receptor expressed in CHO cells assessed as inhibition of acetylcholine-induced calcium mobilization by fluorescence analysis; assay type: functional, cell-based
T1 sequence (whole entry): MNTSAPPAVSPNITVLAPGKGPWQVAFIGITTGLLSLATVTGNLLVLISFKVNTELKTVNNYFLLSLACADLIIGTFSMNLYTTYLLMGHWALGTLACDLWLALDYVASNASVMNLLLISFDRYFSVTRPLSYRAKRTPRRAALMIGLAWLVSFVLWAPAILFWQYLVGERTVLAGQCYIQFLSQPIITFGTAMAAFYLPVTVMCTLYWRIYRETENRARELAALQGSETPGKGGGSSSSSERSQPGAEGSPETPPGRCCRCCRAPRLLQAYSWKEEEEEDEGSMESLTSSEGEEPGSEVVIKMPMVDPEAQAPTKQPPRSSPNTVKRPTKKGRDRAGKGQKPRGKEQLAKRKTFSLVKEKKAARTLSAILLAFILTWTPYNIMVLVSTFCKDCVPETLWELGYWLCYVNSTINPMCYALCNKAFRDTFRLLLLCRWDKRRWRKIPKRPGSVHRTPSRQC

[4] = target: T2, Muscarinic acetylcholine receptor M1 (Homo sapiens, UniProt P11229); assay: as §1; assay type: functional, cell-based; conditions: read-out: IC50
T2 sequence (P11229 whole entry): T1 sequence (whole entry)

[5] = target: Cytochrome P450 2C9 (Homo sapiens, UniProt P11712); assay: Inhibition of CPY2C9
[6] = target: Cytochrome P450 2D6 (Homo sapiens, UniProt P10635); assay: Inhibition of CPY2D6
[7] = target: T1, Muscarinic acetylcholine receptor M1 (Homo sapiens); assay: Antagonist activity at human muscarinic M1 receptor expressed in CHO cells assessed as inhibition of acetylcholine-induced calcium mobilization at 30 uM measured after 15 mins by fluorescence analysis; assay type: functional, cell-based; parameters: scale not given: the % may be the effect or the level left
[8] = target: T1, Muscarinic acetylcholine receptor M1 (Homo sapiens); assay: Displacement of [3H]NMS from human muscarinic M1 receptor
[9] = system: Plasma; assay: Fraction unbound in human plasma; assay type: ADME, cell-free
[10] = target: Muscarinic acetylcholine receptor M3 (Homo sapiens, UniProt P20309); assay: Antagonist activity at human muscarinic M3 receptor assessed as inhibition of acetylcholine-induced calcium mobilization; assay type: functional
[11] = target: T3, Muscarinic acetylcholine receptor M4 (Homo sapiens, UniProt P08173); assay: Antagonist activity at human muscarinic M4 receptor assessed as inhibition of acetylcholine-induced calcium mobilization; assay type: functional
T3 sequence (P08173 whole entry): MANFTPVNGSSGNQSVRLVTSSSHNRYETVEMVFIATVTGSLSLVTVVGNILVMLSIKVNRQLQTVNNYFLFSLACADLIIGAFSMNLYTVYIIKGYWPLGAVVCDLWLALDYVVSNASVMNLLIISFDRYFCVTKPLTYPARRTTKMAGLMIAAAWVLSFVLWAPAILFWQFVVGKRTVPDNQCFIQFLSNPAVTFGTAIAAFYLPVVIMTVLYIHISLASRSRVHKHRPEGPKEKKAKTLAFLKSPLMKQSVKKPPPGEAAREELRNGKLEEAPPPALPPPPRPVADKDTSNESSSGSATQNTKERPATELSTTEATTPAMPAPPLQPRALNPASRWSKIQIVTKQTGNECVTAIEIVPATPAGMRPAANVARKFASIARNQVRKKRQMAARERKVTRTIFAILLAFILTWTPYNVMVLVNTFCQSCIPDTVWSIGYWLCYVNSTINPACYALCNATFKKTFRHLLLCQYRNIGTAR

[12] = system: Brain; assay: Fraction unbound in rat brain homogenate; assay type: ADME, tissue-based
[13] = target: T4, Muscarinic acetylcholine receptor M2 (Homo sapiens, UniProt P08172); assay: Antagonist activity at human muscarinic M2 receptor assessed as inhibition of acetylcholine-induced calcium mobilization; assay type: functional
T4 sequence (P08172 whole entry): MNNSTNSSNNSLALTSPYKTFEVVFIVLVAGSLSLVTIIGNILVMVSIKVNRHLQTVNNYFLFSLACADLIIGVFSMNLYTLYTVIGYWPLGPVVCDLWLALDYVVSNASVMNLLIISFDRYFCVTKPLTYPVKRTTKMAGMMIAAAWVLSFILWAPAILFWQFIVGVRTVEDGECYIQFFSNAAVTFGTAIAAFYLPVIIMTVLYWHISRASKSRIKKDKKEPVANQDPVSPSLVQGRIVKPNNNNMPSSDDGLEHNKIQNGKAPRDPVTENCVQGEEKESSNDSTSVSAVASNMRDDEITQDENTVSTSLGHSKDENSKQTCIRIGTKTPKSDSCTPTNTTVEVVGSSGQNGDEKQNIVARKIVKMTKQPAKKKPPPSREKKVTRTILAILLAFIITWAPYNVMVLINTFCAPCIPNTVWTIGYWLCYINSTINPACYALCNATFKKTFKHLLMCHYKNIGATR

[14] = target: T5, Muscarinic acetylcholine receptor M5 (Homo sapiens, UniProt P08912); assay: Antagonist activity at human muscarinic M5 receptor assessed as inhibition of acetylcholine-induced calcium mobilization; assay type: functional
T5 sequence (P08912 whole entry): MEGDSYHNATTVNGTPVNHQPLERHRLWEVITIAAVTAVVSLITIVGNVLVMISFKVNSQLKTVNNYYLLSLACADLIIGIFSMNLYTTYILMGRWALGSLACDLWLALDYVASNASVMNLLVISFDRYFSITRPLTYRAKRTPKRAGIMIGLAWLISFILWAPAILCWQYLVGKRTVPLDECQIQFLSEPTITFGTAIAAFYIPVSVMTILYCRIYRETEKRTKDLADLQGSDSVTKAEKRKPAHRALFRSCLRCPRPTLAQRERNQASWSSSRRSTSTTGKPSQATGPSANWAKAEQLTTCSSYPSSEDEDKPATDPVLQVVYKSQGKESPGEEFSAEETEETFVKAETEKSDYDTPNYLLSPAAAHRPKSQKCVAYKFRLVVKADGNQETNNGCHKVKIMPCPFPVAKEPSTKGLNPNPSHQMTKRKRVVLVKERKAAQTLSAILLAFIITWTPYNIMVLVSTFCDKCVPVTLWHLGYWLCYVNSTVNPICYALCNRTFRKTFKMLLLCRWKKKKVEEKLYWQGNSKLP

[15] = target: T6, Cytochrome P450 1A2 (Homo sapiens, UniProt P05177); assay: Inhibition of CPY1A2
T6 sequence (P05177 whole entry): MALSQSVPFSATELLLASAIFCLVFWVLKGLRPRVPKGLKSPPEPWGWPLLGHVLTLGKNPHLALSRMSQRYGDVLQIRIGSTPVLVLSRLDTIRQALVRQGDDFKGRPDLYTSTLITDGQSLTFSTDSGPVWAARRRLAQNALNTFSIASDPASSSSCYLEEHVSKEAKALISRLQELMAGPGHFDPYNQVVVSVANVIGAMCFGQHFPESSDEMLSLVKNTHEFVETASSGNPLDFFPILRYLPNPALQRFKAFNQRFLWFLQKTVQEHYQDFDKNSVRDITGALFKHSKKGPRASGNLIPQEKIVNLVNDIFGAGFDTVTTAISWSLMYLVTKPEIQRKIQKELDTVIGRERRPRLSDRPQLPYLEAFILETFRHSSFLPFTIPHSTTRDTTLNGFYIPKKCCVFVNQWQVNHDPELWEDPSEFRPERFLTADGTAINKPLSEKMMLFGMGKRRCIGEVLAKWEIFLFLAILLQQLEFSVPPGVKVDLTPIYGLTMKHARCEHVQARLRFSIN

[16] = target: T1, Muscarinic acetylcholine receptor M1 (Homo sapiens); assay: Antagonist activity at human muscarinic M1 receptor assessed as rightward shift in acetylcholine concentration response curve; assay type: functional
[17] = target: Cytochrome P450 3A4 (Homo sapiens, UniProt P08684); assay: Inhibition of CPY3A4
Sequence of Cytochrome P450 3A4 (P08684 whole entry): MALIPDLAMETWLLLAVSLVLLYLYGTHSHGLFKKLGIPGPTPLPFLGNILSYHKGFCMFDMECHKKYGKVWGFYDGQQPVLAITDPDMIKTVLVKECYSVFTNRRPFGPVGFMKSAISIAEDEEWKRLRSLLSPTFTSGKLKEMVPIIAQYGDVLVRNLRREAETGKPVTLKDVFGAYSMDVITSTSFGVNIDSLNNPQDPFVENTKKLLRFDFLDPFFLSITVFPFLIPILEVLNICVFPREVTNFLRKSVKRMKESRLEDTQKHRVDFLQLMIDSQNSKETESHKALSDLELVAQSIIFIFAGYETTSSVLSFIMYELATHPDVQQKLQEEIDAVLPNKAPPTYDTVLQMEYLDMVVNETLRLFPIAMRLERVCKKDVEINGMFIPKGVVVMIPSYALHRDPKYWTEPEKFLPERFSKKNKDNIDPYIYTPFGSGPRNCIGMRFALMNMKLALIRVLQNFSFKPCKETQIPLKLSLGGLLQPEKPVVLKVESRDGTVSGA

Sequence of Cytochrome P450 2D6 (P10635 whole entry): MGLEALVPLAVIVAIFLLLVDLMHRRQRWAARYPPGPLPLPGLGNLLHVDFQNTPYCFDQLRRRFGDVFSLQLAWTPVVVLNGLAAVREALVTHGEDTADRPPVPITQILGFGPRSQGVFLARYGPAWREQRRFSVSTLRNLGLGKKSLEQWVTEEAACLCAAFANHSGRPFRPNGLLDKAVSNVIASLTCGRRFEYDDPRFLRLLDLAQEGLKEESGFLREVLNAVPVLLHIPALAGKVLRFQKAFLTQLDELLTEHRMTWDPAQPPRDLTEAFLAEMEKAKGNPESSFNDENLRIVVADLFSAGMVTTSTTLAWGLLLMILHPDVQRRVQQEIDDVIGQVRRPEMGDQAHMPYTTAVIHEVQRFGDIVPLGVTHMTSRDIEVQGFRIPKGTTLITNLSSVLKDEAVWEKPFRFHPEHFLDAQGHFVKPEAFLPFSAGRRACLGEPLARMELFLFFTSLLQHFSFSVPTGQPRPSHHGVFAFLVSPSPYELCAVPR
Sequence of Muscarinic acetylcholine receptor M3 (P20309 whole entry): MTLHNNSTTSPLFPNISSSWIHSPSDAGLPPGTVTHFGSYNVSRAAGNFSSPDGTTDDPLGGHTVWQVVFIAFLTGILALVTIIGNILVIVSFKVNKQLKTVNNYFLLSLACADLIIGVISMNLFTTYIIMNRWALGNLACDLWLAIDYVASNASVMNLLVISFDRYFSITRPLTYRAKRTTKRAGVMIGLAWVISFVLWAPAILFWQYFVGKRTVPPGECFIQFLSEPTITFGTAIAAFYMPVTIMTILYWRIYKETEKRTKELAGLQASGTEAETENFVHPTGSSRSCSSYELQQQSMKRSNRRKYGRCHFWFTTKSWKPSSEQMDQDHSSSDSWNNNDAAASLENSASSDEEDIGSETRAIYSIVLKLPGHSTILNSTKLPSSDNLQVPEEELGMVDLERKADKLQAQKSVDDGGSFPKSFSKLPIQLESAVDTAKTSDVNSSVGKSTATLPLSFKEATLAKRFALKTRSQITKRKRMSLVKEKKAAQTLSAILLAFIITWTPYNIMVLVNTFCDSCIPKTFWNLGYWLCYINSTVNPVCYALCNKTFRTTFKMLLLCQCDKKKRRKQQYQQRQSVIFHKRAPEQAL
Sequence of Cytochrome P450 2C9 (P11712 whole entry): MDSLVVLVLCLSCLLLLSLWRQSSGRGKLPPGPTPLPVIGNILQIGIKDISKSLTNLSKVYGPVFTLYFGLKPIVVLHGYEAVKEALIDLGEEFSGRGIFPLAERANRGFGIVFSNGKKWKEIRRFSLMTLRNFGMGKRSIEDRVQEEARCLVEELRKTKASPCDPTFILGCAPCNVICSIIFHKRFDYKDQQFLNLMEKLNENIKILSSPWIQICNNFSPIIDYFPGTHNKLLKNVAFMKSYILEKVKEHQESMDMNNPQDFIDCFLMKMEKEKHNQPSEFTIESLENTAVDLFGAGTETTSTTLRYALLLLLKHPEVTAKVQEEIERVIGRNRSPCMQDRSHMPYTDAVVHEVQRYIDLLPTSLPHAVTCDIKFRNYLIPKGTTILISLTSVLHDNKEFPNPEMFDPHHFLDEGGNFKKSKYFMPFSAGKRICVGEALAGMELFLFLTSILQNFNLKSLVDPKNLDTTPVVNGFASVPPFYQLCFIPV

## O=C(C1CN(S(=O)(=O)c2cccc3cnccc23)C1)N1CC2CN(c3ccncc3)CC2C1 (configuration not stated)
[1]
  Fu: 0.6%
[2]
  clearance: 68.6 mL/min/kg
[3]
  inhibition: Dose-dependent effect
[4]
  IC50: 0.23 µM
[5]
  IC50: < 2.5 µM
[6]
  IC50: < 2.5 µM
[7]
  Activity: 2.8%
[8]
  Activity: Active
[9]
  Fu: 0.9%
[10]
  IC50: > 10 µM
[11]
  IC50: > 10 µM
[12]
  Fu: 0.08%
[13]
  IC50: > 10 µM
[14]
  IC50: > 10 µM
[15]
  IC50: > 30 µM
[16]
  Activity: Active
[17]
  IC50: < 2.5 µM
